Laboratory results published in patent publication EP4212633A1 (priority 2022, dated 2023).

Key:
SARS-CoV-2 pseudoknot = assay: ligand observed fluorescence titrations (binding to the pseudoknot); settings: for Kd: binding to the pseudoknot structure, Figure 3
pseudoknot RNA [1] = assay: 1H,15N-HSQC NMR experiments (chemical shift perturbation, binding site mapping); set-up: species or system SARS-CoV-2
pseudoknot RNA [2] = assay: inline probing experiments; format: binding, SARS-CoV-2
SARS-CoV-2 = settings: Wang et al., 2020, Zhang et al.; cited from earlier work
[3] = at higher concentrations; Borba et al., 2020; cited from earlier work
COVID-19 = settings: Cao et al., 2020; cited from earlier work

## COc1ccc(-c2cc(-c3ccncc3)nc(N3C[C@H](N)C[C@H](N)C3)n2)cc1 [D01+DAP, (3R,5S)-1-(4-(4-methoxyphenyl)-6-(pyridin-4-yl)pyrimidin-2-yl)piperidine-3,5-diamine]
SARS-CoV-2 pseudoknot
  Kd: 0.3 µM
SARS-CoV-2 pseudoknot; ligand observed fluorescence titrations, Figures 3 and 14
  binding affinity to the SARS-CoV-2 pseudoknot (ranking among evaluated derivatives): highest binding affinity
Pseudoknot RNA [1]; addition of ligand to pseudoknot RNA, Figure 4A
  binding site from chemical shift perturbation and decreasing signal intensity: confirmed one of the binding hot spots (HS2) as a binding site
Pseudoknot RNA [2]; Figure 4B
  interaction in inline probing: interaction of D01+DAP and the pseudoknot RNA in the predicted HS1 and the loop region (L2)

## Cc1ccc(C)n1CCC(=O)Nc1ccc2nc[nH]c(=O)c2c1 [D05, 3-(2,5-dimethyl-1H-pyrrol-1-yl)-N-(4-oxo-3,4-dihydroquinazolin-6-yl)propanamide]
SARS-CoV-2 pseudoknot
  Kd: 140 µM
Pseudoknot RNA [1]
  interactions with the RNA in NMR experiments: showed interactions with the RNA
Pseudoknot RNA [2]
  interactions with the RNA in in-line probing experiments: showed interactions with the RNA

## NC(=O)c1ncn([C@@H]2O[C@H](CO)[C@@H](O)[C@H]2O)n1 [Ribavirin]
SARS-CoV-2
  antiviral activity: two- or three-digit micromolar range

## CCN(CC)CCCC(C)Nc1ccnc2cc(Cl)ccc12 (stereo not drawn) [chloroquine]
[3]
  side-effects: heart arrhythmia

## NC(=O)c1nc(F)cnc1O [favipavir]
SARS-CoV-2
  antiviral activity: two- or three-digit micromolar range

## Cc1cccc(C)c1OCC(=O)N[C@@H](Cc1ccccc1)[C@@H](O)C[C@H](Cc1ccccc1)NC(=O)[C@H](C(C)C)N1CCCNC1=O [lopinavir]
COVID-19
  effect in clinical tests: no effect

## CC(C)(C)OC(=O)Nc1cccn([C@@H](CC2CC2)C(=O)N[C@@H](C[C@@H]2CCNC2=O)C(=O)C(=O)NCc2ccccc2)c1=O [α-ketoamide-Inhibitor 13b]
SARS-CoV-2
  antiviral activity: low micromolar range
